Read-outs that look alike come from different tables or passages of the source.
Tests used:
[1] = TNS assay, surface pKa of lipid nanoparticles; assay type: physicochemical
Method in brief: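 Empty LNPs containing the ionizable lipid (LM02 composition, 0.781 mM total lipid before mixing) were combined with TNS in 10 mM HEPES, 10 mM MES, 10 mM NH4OAc, 130 mM NaCl buffers at pH 3–9 in 0.5 steps. Fluorescence was read at room temperature (ex 321/em 445 nm); pKa was taken as the pH of half-maximal intensity from a sigmoidal fit.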

C56BL/6 mice = experiment: hEPO expression in mice after i.v. EPO mRNA LNPs; assay type: in vivo; conditions: for protein expression in vivo compared with MC3: summary, Table 7 and Figures; for hEPO protein level compared with MC3: FIG. 9, 5-moU EPO mRNA, LM02, N/P 6, 0.5 mg/Kg, 6 h
Procedure: C56BL/6 mice were administered i.v doses of 0.5, 1 or 3 mg/Kg of recombinant human EPO-encoded mRNA LNPs containing ionizable lipids MC3, PNI 76, PNI 121 and PNI 127 using the LM02 composition at N/P 6; hEPO protein was measured using Quantikine® IVD® ELISA Human Erythropoietin Immunoassay protocol. Results for the 0.5 mg/Kg dosage are shown in the scatter plot of FIG. 7. Results for the 1 and 3 mg/Kg doses are shown in FIG. 8 as scatter plots of hEPO expression levels at 6 h (left) and 24 h (right).
In another study, 5-moU EPO mRNA encapsulated in LM02 LNP at an N/P ratio of 6 and a dose of 0.5 mg/Kg comprising a variety of […] ionizable lipids (PNI 336, PNI 534, PNI 535, PNI 342, PNI 321, PNI 532, PNI 538, PNI 541, PNI 325, PNI 328, PNI 329, PNI 539, PNI 540, PNI 127); along with MC3 as a control, were administered. hEPO protein was measured using ProteinSimple® Ella platform, and the rhEPO microfluidic cartridges provided by the manufacturer.
Blood from mice treated with hEPO mRNA LNP was analyzed using an automated ELISA platform “ELLA”, using Simplex™ antibody panel cartridges. Human-specific EPO and mouse-specific IL-5, IL-6, TNF-α, and IFN-γ were measured (reagents from Bio-techne). Briefly, 50 μL of sample reagent (diluted biological sample, quality control, or calibration point sample) were aliquoted into each sample inlet, and 1 mL of wash buffer was added into corresponding inlets on the cartridge. All immunoassay operations (including prime system, flow samples and split them into channels, sample incubation, wash, rehydrate and flow secondary antibody, wash, rehydrate and flow streptavidin dye conjugate, incubate, wash, scan) were processed automatically. Raw signal levels (relative fluorescence units, RFUs), mean signal values, standard deviation, and coefficient of variance (CV) for each glass nanoReactor (GNR) value are provided. RFU values are automatically backfit by the ELLA to produce an analyte concentration per analyte/sample using the manufacturer given calibration methodology.
Reagents were acquired from Quantikine, Minneapolis, MN. The assay was performed as directed on the Quantikine® IVD® ELISA Human Erythropoietin Immunoassay protocol REF DEP00 Package Insert. Briefly; Sera samples of 6 h, and/or 24 h post intravenous administration of 0.5, 1 or 3 mg/kg dose of EPO-encoded mRNA were analyzed for EPO expression analysis, and expressed as mIU/mL. To an EPO antibody pre-coated 96-well microplate, provided by the manufacturer, standards, appropriately diluted sera, and the Horseradish peroxidase (HRP)-conjugated rabbit anti-EPO polyclonal antibody and TMB (Tetramethylbenzidine) as the substrate were added and incubated for 20 minutes. Stop solution (Sulfuric Acid) was added to the wells and the plate was read at 450 nm and the concentration of EPO was calculated. The amount of colour generated is directly proportional to the amount of the conjugate bound to EPO antibody, which in turn is directly proportional to the amount of EPO in the specimen or standard. A standard curve was generated by plotting absorbance versus concentration of provided standards. Quantikine® Human Serum Controls (CEP 01, CEP 03) were used for internal controls.

[2] = LNP size and PDI by dynamic light scattering; assay type: physicochemical
Method in brief: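 Hydrodynamic diameter measured by DLS with a 633 nm He/Ne laser in backscatter mode (173°), averaging 10 runs of two cycles per sample. Size reported as Z-average (harmonic intensity-averaged diameter), with polydispersity given as PDI.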

[3] = Table 1, formulated lipid nanoparticles, TNS assay, read-out: Exp. pKa
[4] = Table 6, GFP-encoded LNPs, CT10, N/P 8
[5] = Table 7, EPO mRNA LNPs, LM02, N/P 6

| Structure (SMILES) | pKa [1, 3] | pKa ([1]; Table 5, read-out: pKa Exp.) | pKa ([1]; Table 8, read-out: Exp.pKa) | protein expression in vivo compared with MC3 (C56BL/6 mice) | Diameter (Z. ave, nm) [2, 4] | Polydispersity Index (PDI) [2, 4] | Diameter (Z. ave, nm) [2, 5] | Polydispersity Index (PDI) [2, 5] | hEPO protein level compared with MC3 (C56BL/6 mice) |
| --- | --- | --- | --- | --- | --- | --- | --- | --- | --- |
| CCCCC/C=C\C/C=C\CCCCCCCC(=O)O[C@@H]1[C@@H](OC(=O)CCCCCCC/C=C\C/C=C\CCCCC)CO[C@@H]1COC(=O)CCCN(C)C (racemic) [PNI 121] | 6.83 | 6.83 | 6.8 | equivalent to MC3 | 100.7 nm | 0.16 | 93.5 nm | 0.10 | – |
| CCCCC/C=C\C/C=C\CCCCCCCC(=O)O[C@@H]1[C@@H](OC(=O)CCCCCCC/C=C\C/C=C\CCCCC)CO[C@@H]1COC(=O)C1CCN(C)C1 (mixture of isomers) [PNI 328] | 6.09 | – | 6.09 | equivalent to MC3 | 92.6 nm | 0.16 | 66.9 nm | 0.02 | compare well to MC3 |
| CCCCC/C=C\C/C=C\CCCCCCCC(=O)O[C@@H]1[C@@H](OC(=O)CCCCCCC/C=C\C/C=C\CCCCC)CO[C@@H]1COC(=O)C1(C)CCN(C)C1 (mixture of isomers) [PNI 329] | 5.88 | – | 5.88 | equivalent to MC3 | 74.1 nm | 0.11 | 70.9 nm | 0.04 | compare well to MC3 |
| CCCCC/C=C\C/C=C\CCCCCCCC(=O)O[C@@H]1[C@@H](OC(=O)CCCCCCC/C=C\C/C=C\CCCCC)CO[C@@H]1COC(=O)CCCN1CCCC1 (racemic) [PNI 539] | 6.6 | – | 6.6 | – | – | – | 86.9 nm | 0.13 | compare well to MC3 |
